Drawing on PubChem BioAssay (NCI), this text covers GI50 and TGI for 8 compounds.

Each structure is given as a SMILES string. “And” between values parts separate entries of the source, which are not always exact repeats. Identical values can stand only once.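 Method: 48-hour compound exposure of cells in 96-well plates, five concentrations, linear interpolation of endpoints. At the GI50, growth is halved. Definition used: TGI = concentration required for complete inhibition of growth.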 A value given as a limit tells only on which side of the number the result lay.

Test systems include NCI-H460 lung; LOX IMVI melanoma; NCI/ADR-RES ovarian; NCI-H23 lung; MDA-MB-435; DU-145 prostate; CAKI-1 renal; IGROV1 ovarian; PC-3 prostate; HCT-116 colon.
What all share (experiment): growth of human tumour cells (NCI), 48 h

Regarding `O=C(c1ccccc1O)c1[nH]c(Cl)c(Cl)c1-n1c(C(=O)c2ccccc2O)cc(Cl)c1Cl`, the GI50 in the experiment with NCI-H460 lung is 456 nM and 427 nM; in the experiment with LOX IMVI melanoma it was 2720 nM and 2480 nM; in the experiment on NCI/ADR-RES ovarian it was 669 nM and 456 nM; with NCI-H23 lung, 0.418 µM and 0.409 µM; in the experiment on MDA-MB-435, 1870 nM and 1510 nM; in the experiment on DU-145 prostate, 2250 nM and 1810 nM. In addition, the GI50 in the experiment on CAKI-1 renal was 425 nM and 385 nM; in the experiment on IGROV1 ovarian, 1540 nM and 1450 nM; with PC-3 prostate it was 411 nM and 276 nM; in the experiment with HCT-116 colon, 336 nM and 344 nM. For the same compound, the TGI with NCI-H460 lung is 11.2 µM and 10.2 µM; in the experiment on LOX IMVI melanoma, 10.6 µM and 10.7 µM; with NCI/ADR-RES ovarian, 12.9 µM and 11.2 µM; with NCI-H23 lung it was 6.8 µM and 11.7 µM; in the experiment on MDA-MB-435, 10.6 µM and 10.4 µM; in the experiment on DU-145 prostate, 16.3 µM and 16.6 µM. The TGI in the experiment on CAKI-1 renal was 10.6 µM and 3.1 µM; with IGROV1 ovarian, 20.5 µM and 15.1 µM; in the experiment with PC-3 prostate, 9.21 µM and 2.37 µM; with HCT-116 colon, 4.76 µM and 10.4 µM.
`C[n+]1c(/C=C/c2ccc(/C=N/NC(=O)c3ccc(C(=O)N/N=C/c4ccc(/C=C/c5cn6ccccc6[n+]5C)cc4)cc3)cc2)cn2ccccc21`: the TGI in the experiment on NCI-H460 lung, in the experiment with LOX IMVI melanoma, with NCI/ADR-RES ovarian, in the experiment on NCI-H23 lung, in the experiment with MDA-MB-435 and with DU-145 prostate was greater than 100 µM each time. Besides, the TGI with CAKI-1 renal, in the experiment on IGROV1 ovarian, with PC-3 prostate and in the experiment with HCT-116 colon was greater than 100 µM each time.
On to `COc1ccc2[nH]c(O)c(/C=c3/ccc4c(c3)N=C(c3ccc(F)cc3)N=4)c2c1`, for which the GI50 with NCI-H460 lung is 3350 nM; in the experiment on LOX IMVI melanoma, 2920 nM; in the experiment with NCI/ADR-RES ovarian, 3780 nM; in the experiment with NCI-H23 lung, 3.14 µM; in the experiment with MDA-MB-435 it was 3200 nM; in the experiment on DU-145 prostate, 2230 nM. The GI50 in the experiment on CAKI-1 renal is 7120 nM; in the experiment on IGROV1 ovarian, 3270 nM; with PC-3 prostate, 4640 nM; in the experiment with HCT-116 colon, 1630 nM. The TGI was 12.3 µM in the experiment on NCI-H460 lung; greater than 100 µM in the experiment with LOX IMVI melanoma; 24.4 µM with NCI/ADR-RES ovarian; 28.1 µM in the experiment on NCI-H23 lung; 40 µM in the experiment on MDA-MB-435; 6.87 µM in the experiment on DU-145 prostate. Also, the TGI in the experiment with CAKI-1 renal is greater than 100 µM; in the experiment with IGROV1 ovarian, 17.9 µM; in the experiment with PC-3 prostate, 88.6 µM; in the experiment on HCT-116 colon, 3.37 µM.
Regarding `Cc1cc(S(N)(=O)=O)c(S/C(=N\Nc2ccc([N+](=O)[O-])cc2)c2ccc3ccccc3c2)cc1Cl`, the GI50 in the experiment with NCI-H460 lung is 18500 nM; in the experiment with LOX IMVI melanoma it was 20300 nM; in the experiment with NCI/ADR-RES ovarian, 13900 nM; with NCI-H23 lung, 16.4 µM; in the experiment with MDA-MB-435, 22200 nM; in the experiment on DU-145 prostate, 13200 nM. Besides, the GI50 in the experiment with CAKI-1 renal was 17500 nM; in the experiment on IGROV1 ovarian, 54300 nM; with PC-3 prostate it was 14200 nM; in the experiment with HCT-116 colon, 4670 nM. Further, the TGI in the experiment with NCI-H460 lung is greater than 100 µM; with LOX IMVI melanoma, 40.9 µM; in the experiment with NCI/ADR-RES ovarian, 41.9 µM; in the experiment on NCI-H23 lung, 30.2 µM; in the experiment with MDA-MB-435, 64.9 µM; with DU-145 prostate, 43 µM. Further, the TGI with CAKI-1 renal is 48.8 µM; in the experiment on IGROV1 ovarian, greater than 100 µM; with PC-3 prostate, 27.4 µM; in the experiment with HCT-116 colon, greater than 100 µM.
For `COc1ccc(Oc2cc(NCCC(F)(F)F)c3ncc(-c4ccc(C(=O)NC5CC5)c(C)c4)n3n2)c(F)c1F`, the GI50 in the experiment on NCI-H460 lung was less than 10 nM; in the experiment on LOX IMVI melanoma, 125 nM; in the experiment on NCI/ADR-RES ovarian it was 198 nM; in the experiment on NCI-H23 lung, 4.16 µM; in the experiment with MDA-MB-435 it was 2640 nM; in the experiment on DU-145 prostate it was 423 nM. Further, the GI50 was 365 nM with CAKI-1 renal, 484 nM with IGROV1 ovarian, 2160 nM with PC-3 prostate and less than 10 nM in the experiment on HCT-116 colon. The TGI in the experiment on NCI-H460 lung is greater than 54 µM; in the experiment with LOX IMVI melanoma, greater than 100 µM; in the experiment with NCI/ADR-RES ovarian it was greater than 80.6 µM; in the experiment with NCI-H23 lung it was greater than 100 µM; in the experiment on MDA-MB-435, greater than 100 µM; with DU-145 prostate it was greater than 100 µM. Moreover, the TGI in the experiment on CAKI-1 renal is greater than 100 µM; with IGROV1 ovarian, greater than 68.3 µM; in the experiment with PC-3 prostate, greater than 78.5 µM; in the experiment on HCT-116 colon, greater than 54.5 µM.
`C#C/C=C/CC1OC(C(Br)CC)CC(Br)C2CC1O2` (stereo not given): the TGI in the experiment on NCI-H460 lung is greater than 100 µM; with LOX IMVI melanoma, 3.39 µM; in the experiment on NCI/ADR-RES ovarian it was greater than 100 µM; in the experiment on NCI-H23 lung it was greater than 100 µM; with MDA-MB-435, greater than 100 µM; in the experiment on DU-145 prostate, greater than 100 µM. Further, the TGI in the experiment with CAKI-1 renal was greater than 100 µM; in the experiment on IGROV1 ovarian it was 14.6 µM; in the experiment on PC-3 prostate, greater than 100 µM; in the experiment on HCT-116 colon it was greater than 100 µM.
Take `CNC(=O)c1cc2c(Oc3ccc(NC(=S)NC(=O)Cc4ccccc4)cc3F)ccnc2cc1OC`: the GI50 is greater than 100000 nM with NCI-H460 lung; 4130 nM in the experiment with LOX IMVI melanoma; 7010 nM in the experiment with NCI/ADR-RES ovarian; 3.13 µM with NCI-H23 lung; greater than 27600 nM in the experiment on MDA-MB-435; greater than 31400 nM in the experiment with DU-145 prostate. The GI50 in the experiment with CAKI-1 renal is 4230 nM; in the experiment with IGROV1 ovarian, 5960 nM; in the experiment with PC-3 prostate it was 16700 nM; with HCT-116 colon, 59500 nM. For the same compound, the TGI with NCI-H460 lung, in the experiment on LOX IMVI melanoma, in the experiment on NCI/ADR-RES ovarian, with NCI-H23 lung, in the experiment with MDA-MB-435 and with DU-145 prostate was greater than 100 µM in each case. For the same compound, the TGI with CAKI-1 renal, in the experiment with IGROV1 ovarian, in the experiment with PC-3 prostate and with HCT-116 colon was greater than 100 µM throughout.
In the case of `Cc1ncc(-c2ccnc(Nc3ccc(S(C)(=O)=O)cc3)n2)n1C(C)C`, the GI50 in the experiment with NCI-H460 lung is 931 nM; in the experiment on LOX IMVI melanoma it was 537 nM; in the experiment with NCI/ADR-RES ovarian, 2460 nM; with NCI-H23 lung it was 1.79 µM; in the experiment with MDA-MB-435 it was 1410 nM; with DU-145 prostate it was 1320 nM. Moreover, the GI50 in the experiment with CAKI-1 renal was 805 nM; in the experiment with IGROV1 ovarian, 758 nM; in the experiment with PC-3 prostate, 1300 nM; with HCT-116 colon, 275 nM. Also, the TGI in the experiment on NCI-H460 lung is greater than 5.33 µM; with LOX IMVI melanoma it was 9.94 µM; with NCI/ADR-RES ovarian, greater than 10 µM; in the experiment with NCI-H23 lung, 7.17 µM; in the experiment on MDA-MB-435, greater than 5.6 µM; in the experiment with DU-145 prostate, greater than 10 µM. Besides, the TGI in the experiment on CAKI-1 renal is greater than 10 µM; with IGROV1 ovarian, greater than 7.91 µM; in the experiment on PC-3 prostate, 7.2 µM; with HCT-116 colon, greater than 10 µM.
